Numbers after ± are expanded uncertainties.
Assays:
[1] = Crystal; DSC
[2] = Molar enthalpy of transition or fusion; details: Crystal; DSC

In the case of `CC(=O)c1c(C)c([N+](=O)[O-])c(C(C)(C)C)c([N+](=O)[O-])c1C` [3',5'-dinitro-2',6'-dimethyl-4'-tert-butylacetophenone], the Triple point temperature [1] is reported as 409.5 ± 1 K and the “Molar enthalpy of transition or fusion” value [2] is reported as 5.69 ± 0.167 kcal/mol.

From the NIST ThermoML archive (doi:10.1021/acs.jced.9b00310)
